Source: patent US11225507B2, “Conformation switchable antimicrobial peptides and methods of using the same” (priority 2017, dated 2022)

How the values were obtained:
[1] = system: commensal bacteria; experiment: Killing effect against commensal bacteria in vivo (16S rRNA qPCR); conditions: mice, daily gavage for 3 consecutive days
Description: The bacterial load was determined by quantitative real-time PCR using a protocol modified from Stefka et al., and Buffie et al. (Stefka et al. (2014) Commensal bacteria protect against food allergen sensitization. Proc Natl Acad Sci USA 111:13145-13150; Buffie et al. (2012) Profound alterations of intestinal microbiota following a single dose of clindamycin results in sustained susceptibility to Clostridium difficile-induced colitis. Infect Immun 80:62-73). Fecal DNA was extracted as for sequencing, and bacterial load was quantified against a standard curve derived from apCR4TOPO-TA vector containing a nearly full-length copy of the 16S rRNA gene from a member of Porphyromonadaceae. Bacterial DNA was amplified with universal primers 8F and 338R using the iQ SYBR greensupermix (Bio-RadLifeScience) and the StepOne Plus system (AppliedBiosystems). The results were normalized to ileal content/fecal weight.

[2] = system: E. coli DH5α; experiment: Minimal inhibition concentration (MIC), E. coli DH5α; format: cell-based, Escherichia coli; conditions: pH 7.4
Description: (§1) Minimal inhibition concentration (MIC). Gram-negative bacteria, DH5α and MG1655 (E. coli) were grown in LB medium at 37° C. For determination of the MIC, polypeptides were dissolved in media using serial dilutions from a stock solution. Into each well of a 96-well plate was added 200 μL of each concentration and 2 μL of bacteria (1×10^8 CFU (colony forming units)) in medium. The plate was incubated at 37° C. The optical density readings of microorganism solutions were measured after 24 h incubation. The MIC was considered as the lowest concentration of peptide where no visual growth of bacteria was detected.

[3] = system: H. pylori SS1; experiment: Anti-H. pylori efficacy in vivo (infected C57BL/6J mice); design: species or system Helicobacter pylori; conditions: oral gavage once daily for 3 d, 2.6 μmol/kg
Description: Anti-H. pylori efficacy in vivo. […] For triple therapy, mice were first administered omeprazole (a proton pump inhibitor) through oral gavage at a dose of 400 μmol/kg, followed by a lag time of 30 min before administration of amoxicillin (68.0 μmol/kg) and clarithromycin (19.1 μmol/kg). PL2 and PDL2 in 5% (vol/vol) DMSO (both at 2.6 μmol/kg) were administered through oral gavage once daily for a consecutive 3 d. Water solution with 5% DMSO was served as negative control group. Forty-eight hours after the last administration, mice were killed and the stomach was removed from the abdominal cavity. The stomach was cut along the greater curvature, and the gastric content was removed and rinsed with PBS. The stomach sections were used for assessment of bacterial colonization. For bacterial colonization, a gastric tissue section was suspended in 1 mL PBS and homogenized for H. pylori recovery. The homogenate was serially diluted and spotted onto Columbia agar plate containing vancomycin (20 μg/mL), amphotericin (2 μg/mL), bacitracin (30 μg/mL) and nalidixic acid (10 μg/mL). The plates were then incubated at 37° C. under microaerobic conditions for 5 d, and bacterial colonies were enumerated and adjusted for dilutions.

[4] = Toxicity of PL2 in vivo after oral gavage; design: species or system mice; conditions: mouse
Description: Toxicity of PL2 in vivo. […] Mice were sacrificed on day 5, and the blood samples were collected for the analysis of alanine aminotransferase (ALT), aspartate aminotransferase (AST), creatinine, urea nitrogen, sodium ion and potassium ion levels. The colonic segment, stomach, liver, small intestine, kidney and feces of each mouse was gathered and homogenized with cold PBS (pH7.4). The stomachs were used to determine the expression of caspase 3 and caspase 8 using Caspase 3 Assay Kit (Sigma) and Caspase 8/FLICE Colorimetric Kit (Life technology), respectively. The colonic segment and feces were used to extract bacterial DNA. The stomach, small intestine, liver, and kidney were kept in formalin for H&E staining. The stomachs were also kept in formalin for terminal deoxynucleotidyl transferase dUTP nick end labeling (TUNEL) assay (S7100|ApopTag® Peroxidase In Situ Apoptosis Detection Kit). […] The inflammation and injury of stomach were scored by Dr. Liu in a blind manner based on the H&E staining. Inflammation was graded on a 0-3 ordinal scale based on the Sydney System as follows: chronic inflammation (mononuclear cell infiltration independent of lymphoid follicles); grade 0, no inflammation; grade 1, mild inflammation (slight increase in mononuclear cells); grade 2, moderate inflammation (dense but focal mononuclear inflammatory cells); and grade 3, severe inflammation (dense and diffuse mononuclear inflammatory cells). The appearance of the mucosa was graded as follows: 0, normal; 1, spotty changes in cellular staining characteristics of some surface epithelial cells in an otherwise normal mucosa (mild injury); 2, more generalized changes and/or disruption of the surface epithelium in several areas (moderate injury); 3, extensive mucosal destruction (severe injury).

[5] = Circular dichroism (CD) secondary structure of polypeptides at different pH; format: physicochemical
Description: The secondary structure of the polypeptides at different pH value was then investigated by circular dichroism (CD). […] Distortion of helical conformation was noted when the pH was adjusted back to neutral (FIG. 1C).
The MALLS detector was calibrated using pure toluene and can be used for the determination of the absolute molecular weights (MWs). The MWs of polymers were determined based on the dn/dc value of each polymer sample calculated offline by using the internal calibration system processed by the ASTRA V software (version 5.1.7.3, Wyatt Technology, Santa Barbara, Calif., USA). Circular dichroism (CD) measurements were carried out on a JASCO J-815 CD spectrometer. The polymer samples were prepared at concentrations of 4.4 μM. The solution was placed in a quartz cell with a path length of 0.10 cm. The zeta-potential of polypeptides was evaluated by Malvern Zetasizer. Infrared spectra were recorded on a Perkin Elmer 100 serial FTIR spectrophotometer calibrated with polystyrene film. Lyophilization was performed on a FreeZonelyophilizer (Labconco, Kansas City, Mo., USA). UV light was generated from an OmiCure S1000 UV lamp (EXFO, Mississauga, Canada).

[6] = system: E. coli MG1655; experiment: Minimal inhibition concentration (MIC), E. coli MG1655; format: cell-based, Escherichia coli; conditions: pH 7.4
Description: as §1

Substance: (PGA)18-r-(PHLG-MHH)20 [PL2]
- killing of commensal bacteria in the feces [1]: did not cause undesired killing of the commensal bacteria
- killing of commensal bacteria in the ileal contents [1]: did not cause undesired killing of the commensal bacteria
- minimal inhibitory concentration (MIC) [2]: higher than 70 μM
- decrease of bacterial burden in the stomach as compared with the control group [3]: ~100 times
- ALT [4]: 37.3 ± 0.5 U/L
- AST [4]: 120.3 ± 17.9 U/L
- Creatinine [4]: 8.7 ± 0.9 µM
- Potassium ion [4]: 8.1 ± 0.2 mM
- Sodium ion [4]: 149.4 ± 1.6 mM
- Urea nitrogen [4]: 6.8 ± 0.6 mM
- histology of intestines, liver, and kidney (H&E staining) [4]: barely detectable histological abnormality
- secondary structure (CD) ([5]; pH≤4.2): typical helical conformation
- secondary structure (CD) ([5]; pH≥5.1): random coiled conformation
- minimal inhibitory concentration (MIC) [6]: higher than 70 μM
